Assay results reported in US20060293307A1, “Oxazolidinone derivatives as antimicrobials” (priority 2002, published 2006).
In brackets after ≈: the same amount, converted by molar mass.

Experiments:
[1] = tested on: S. aureus ATCC29213; assay: MIC, agar incorporation method; type: cell-based, Staphylococcus aureus
[2] = tested on: S. aureus SG 511; assay: MIC, agar incorporation method; type: cell-based, Staphylococcus aureus
[3] = tested on: S. aureus (MRSA) 15187; assay: MIC, agar incorporation method; type: cell-based, Staphylococcus aureus
[4] = tested on: S. aureus (MRSA) ST450; assay: MIC, agar incorporation method; type: cell-based, Staphylococcus aureus
[5] = tested on: S. aureus (Smith 49951); assay: MIC, agar incorporation method; type: cell-based, Staphylococcus aureus
[6] = tested on: S. epidermidis ATCC 12228; assay: MIC, agar incorporation method; type: cell-based, Staphylococcus epidermidis
[7] = tested on: S. epidermidis (MRSE) 23760; assay: MIC, agar incorporation method; type: cell-based, Staphylococcus epidermidis
[8] = tested on: S. epidermidis (MRSE)32965; assay: MIC, agar incorporation method; type: cell-based, Staphylococcus epidermidis
[9] = tested on: E. faecalis 29212; assay: MIC, agar incorporation method; type: cell-based
[10] = tested on: E. faecalis 21777; assay: MIC, agar incorporation method; type: cell-based
[11] = tested on: Serratia marcescens 12999; assay: MIC, agar incorporation method; type: cell-based
[12] = tested on: S. pneumoniae AB-2; assay: MIC, agar incorporation method; type: cell-based, Streptococcus pneumoniae
[13] = tested on: S. pneumoniae AB 10; assay: MIC, agar incorporation method; type: cell-based, Streptococcus pneumoniae
[14] = tested on: S. pneumoniae AB 31; assay: MIC, agar incorporation method; type: cell-based, Streptococcus pneumoniae
[15] = tested on: S. pneumoniae AB 17; assay: MIC, agar incorporation method; type: cell-based, Streptococcus pneumoniae
[16] = tested on: S. pneumoniae AB 21; assay: MIC, agar incorporation method; type: cell-based, Streptococcus pneumoniae
[17] = tested on: S. pneumoniae CS 1687; assay: MIC, agar incorporation method; type: cell-based, Streptococcus pneumoniae
[18] = tested on: S. pneumoniae AB 25; assay: MIC, agar incorporation method; type: cell-based, Streptococcus pneumoniae
[19] = tested on: S. pneumoniae AB 29; assay: MIC, agar incorporation method; type: cell-based, Streptococcus pneumoniae
[20] = tested on: S. pneumoniae ATCC 6303; assay: MIC, agar incorporation method; type: cell-based, Streptococcus pneumoniae
[21] = tested on: S. pyogenes 19615; assay: MIC, agar incorporation method; type: cell-based, Streptococcus pyogenes
[22] = tested on: S. pyogenes 25147; assay: MIC, agar incorporation method; type: cell-based, Streptococcus pyogenes
[23] = tested on: Moraxella M1; assay: MIC, agar incorporation method; type: cell-based
[24] = tested on: Moraxella cata. M2; assay: MIC, agar incorporation method; type: cell-based
[25] = tested on: H. influenzae 451; assay: MIC against Haemophilus strains; type: cell-based
[26] = S. No. 4, S. aureus (MRSA) 15187
[27] = S. No. 6, S. aureus (MRSA) ST450
[28] = S. No. 9, S. aureus (Smith 49951)
[29] = S. No. 10, S. epidermidis ATCC 12228
[30] = S. No. 11, S. epidermidis (MRSE) 23760
[31] = S. No. 13, S. epidermidis (MRSE)32965
[32] = S. No. 29, Serratia marcescens 12999
[33] = S. No. 44, S. pneumoniae CS 1687
[34] = S. No. 50, S. pneumoniae ATCC 6303
[35] = Staphylococcus epidermidis, MRSE

C[C@H](Cl)C(=O)NCC1CN(c2ccc(N3CCN(c4ccc([N+](=O)[O-])s4)CC3)c(F)c2)C(=O)O1 (stereo partly drawn) [Compound No. 7, (S)—N-[[3-[3-Fluoro-4-[N-1-{4-(5-nitro-2-thienyl)piperazinyl}]-phenyl]-2-oxo-5-oxazolidinyl]-methyl]-2-chloro-propionamide] was tested, and the MIC ([1]; S. No. 2, S. aureus ATCC29213) was >8 µg/mL, the MIC ([2]; S. No. 3, S. aureus SG 511) was >8 µg/mL and the MIC [3, 26] was >8 µg/mL. The MIC [4, 27] was >8 µg/mL, the MIC [5, 28] was >8 µg/mL and the MIC [6, 29] was 1 µg/mL (≈ 1.95 µM). For the same compound, the MIC [7, 30] was 4 µg/mL (≈ 7.81 µM), the MIC [8, 31] was 2 µg/mL (≈ 3.91 µM) and the MIC ([9]; S. No. 17, E. faecalis 29212) was >8 µg/mL. The MIC ([10]; S. No. 18, E. faecalis 21777) was >8 µg/mL, the MIC [11, 32] was >8 µg/mL and the MIC ([12]; S. No. 31, S. pneumoniae AB-2) was 0.5 µg/mL (≈ 0.977 µM). It also gave an MIC ([13]; S. No. 35, S. pneumoniae AB 10) of 0.5 µg/mL (≈ 0.977 µM), an MIC ([14]; S. No. 36, S. pneumoniae AB 31) of 1 µg/mL (≈ 1.95 µM) and an MIC ([15]; S. No. 40, S. pneumoniae AB 17) of 1 µg/mL (≈ 1.95 µM). It also gave an MIC ([16]; S. No. 41, S. pneumoniae AB 21) of 1 µg/mL (≈ 1.95 µM), an MIC [17, 33] of 2 µg/mL (≈ 3.91 µM) and an MIC ([18]; S. No. 45, S. pneumoniae AB 25) of 0.5 µg/mL (≈ 0.977 µM). The MIC ([19]; S. No. 46, S. pneumoniae AB 29) was 0.5 µg/mL (≈ 0.977 µM), the MIC [20, 34] was 0.5 µg/mL (≈ 0.977 µM) and the MIC ([21]; S. No. 51, S. pyogenes 19615) was 2 µg/mL (≈ 3.91 µM). For the same compound, the MIC ([22]; S. No. 52, S. pyogenes 25147) was 2 µg/mL (≈ 3.91 µM), the MIC ([23]; S. No. 58, Moraxella M1) was >8 µg/mL and the MIC ([24]; S. No. 59, Moraxella cata. M2) was >8 µg/mL. The MIC ([25]; s. No. 8, H. influenzae 451) was >16 µg/mL.
Work on O=C(NC[C@H]1CN(c2ccc(N3CCN(c4ccc([N+](=O)[O-])s4)CC3)c(F)c2)C(=O)O1)C(F)F [Compound No. 8, (S)—N-[[3-[3-Fluoro-4-[4-(5-nitro-2-thienyl)-1-piperazinyl]phenyl]-2-oxo-5-oxazolidinyl]methyl]difluoroacetamide] yielded an MIC ([1]; Staphylococcus aureus, ATCC29213) of 2 µg/mL (≈ 4 µM), an MIC ([2]; Staphylococcus aureus, SG511) of 0.25 µg/mL (≈ 0.501 µM) and an MIC ([3]; Staphylococcus aureus, MRSA) of 2 µg/mL (≈ 4 µM). The MIC ([4]; Staphylococcus aureus, MRSA) was 2 µg/mL (≈ 4 µM), the MIC ([5]; Staphylococcus aureus) was 1 µg/mL (≈ 2 µM) and the MIC ([6]; Staphylococcus epidermidis, ATCC12228) was 0.125 µg/mL (≈ 0.25 µM). For the same compound, the MIC [7, 35] was 0.25 µg/mL (≈ 0.501 µM), the MIC [8, 35] was 0.25 µg/mL (≈ 0.501 µM) and the MIC ([9]; Enterococcus faecalis, 29212) was 0.25 µg/mL (≈ 0.501 µM). For the same compound, the MIC ([10]; Enterococcus faecalis, 21777) was 2 µg/mL (≈ 4 µM), the MIC ([11]; Serratia marcescens, 12999) was > 8 µg/mL and the MIC ([12]; Streptococcus pneumoniae, AB2) was 0.125 µg/mL (≈ 0.25 µM). It also gave an MIC ([13]; Streptococcus pneumoniae, AB10) of 0.125 µg/mL (≈ 0.25 µM), an MIC ([14]; Streptococcus pneumoniae, AB31) of 0.25 µg/mL (≈ 0.501 µM) and an MIC ([15]; Streptococcus pneumoniae, AB17) of 0.25 µg/mL (≈ 0.501 µM). For the same compound, the MIC ([16]; Streptococcus pneumoniae, AB21) was 0.25 µg/mL (≈ 0.501 µM), the MIC ([17]; Streptococcus pneumoniae, CS1687) was 0.25 µg/mL (≈ 0.501 µM) and the MIC ([18]; Streptococcus pneumoniae, AB25) was 0.25 µg/mL (≈ 0.501 µM). For the same compound, the MIC ([19]; Streptococcus pneumoniae, AB29) was 0.25 µg/mL (≈ 0.501 µM), the MIC ([20]; Streptococcus pneumoniae, ATCC6303) was 0.25 µg/mL (≈ 0.501 µM) and the MIC ([21]; Streptococcus pyogenes, 19615) was 0.25 µg/mL (≈ 0.501 µM). For the same compound, the MIC ([22]; Streptococcus pyogenes, 25147) was 0.25 µg/mL (≈ 0.501 µM), the MIC ([23]; Moraxella, M1) was 1 µg/mL (≈ 2 µM) and the MIC ([24]; Moraxella, CATA.M2) was 1 µg/mL (≈ 2 µM). For the same compound, the MIC ([25]; Haemophilus influenzae, 451) was > 16 µg/mL.
Compound O=C(NC[C@H]1CN(c2ccc(N3CCN(c4ccc([N+](=O)[O-])s4)CC3)c(F)c2)C(=O)O1)C(Cl)Cl [compound 9, (S)—N-[[3-[-3-Fluoro-4-[N-1-(5-nitro-2-thienyl)-piperazinyl]phenyl] -2-oxo-5-oxazolidinyl]methyl]dichloroacetamide] has an MIC ([1]; S. No. 2, S. aureus ATCC29213) of 2 µg/mL (≈ 3.76 µM), an MIC ([2]; S. No. 3, S. aureus SG 511) of 0.5 µg/mL (≈ 0.939 µM) and an MIC [3, 26] of 1 µg/mL (≈ 1.88 µM). The MIC [4, 27] was 1 µg/mL (≈ 1.88 µM), the MIC [5, 28] was 0.5 µg/mL (≈ 0.939 µM) and the MIC [6, 29] was 0.25 µg/mL (≈ 0.47 µM). It also gave an MIC [7, 30] of 0.5 µg/mL (≈ 0.939 µM), an MIC [8, 31] of 0.5 µg/mL (≈ 0.939 µM) and an MIC ([9]; S. No. 17, E. faecalis 29212) of 1 µg/mL (≈ 1.88 µM). The MIC ([10]; S. No. 18, E. faecalis 21777) was 0.5 µg/mL (≈ 0.939 µM), the MIC [11, 32] was >8 µg/mL and the MIC ([12]; S. No. 31, S. pneumoniae AB-2) was 0.25 µg/mL (≈ 0.47 µM). For the same compound, the MIC ([13]; S. No. 35, S. pneumoniae AB 10) was 0.25 µg/mL (≈ 0.47 µM), the MIC ([14]; S. No. 36, S. pneumoniae AB 31) was 0.25 µg/mL (≈ 0.47 µM) and the MIC ([15]; S. No. 40, S. pneumoniae AB 17) was 0.25 µg/mL (≈ 0.47 µM). It also gave an MIC ([16]; S. No. 41, S. pneumoniae AB 21) of 0.25 µg/mL (≈ 0.47 µM), an MIC [17, 33] of 0.5 µg/mL (≈ 0.939 µM) and an MIC ([18]; S. No. 45, S. pneumoniae AB 25) of 0.25 µg/mL (≈ 0.47 µM). It also gave an MIC ([19]; S. No. 46, S. pneumoniae AB 29) of 0.25 µg/mL (≈ 0.47 µM), an MIC [20, 34] of 0.25 µg/mL (≈ 0.47 µM) and an MIC ([21]; S. No. 51, S. pyogenes 19615) of 0.5 µg/mL (≈ 0.939 µM). It also gave an MIC ([22]; S. No. 52, S. pyogenes 25147) of 0.5 µg/mL (≈ 0.939 µM), an MIC ([23]; S. No. 58, Moraxella M1) of 1 µg/mL (≈ 1.88 µM) and an MIC ([24]; S. No. 59, Moraxella cata. M2) of 1 µg/mL (≈ 1.88 µM). The MIC ([25]; s. No. 8, H. influenzae 451) was >16 µg/mL.
